Source: patent US4075341A, “2-Substituted phenyl-5-triazols [5,1-a] isoquinoline compounds” (Gruppo Lepetit S.p.A., priority 1975, dated 1978)
Where two headings read alike, the source gives them in different places.

Assays:
[1] = tested on: female Syrian golden hamsters; experiment: anti-fertility activity in pregnant female Syrian golden hamsters; type: in vivo; parameters: key to anti-fertility activity (active according to criteria): active: a reduction of live fetuses in at least 60% of the treated animals and the presence of implantation sites proves the animal to have been pregnant; details: for anti-fertility activity (active according to criteria): 10 mg./kg. s.c. daily for 5 days, days 4-8 of pregnancy, autopsy day 14; for ED50: Mesocricetus auratus, sc, read-out: ED50 (dose showing 100% effectiveness in 50% of the treated animals)
Procedure: Representative experiments for assessing anti-fertility activity are carried out with female Syrian golden hamsters weighing 100 to 130 g. The animals are mated and the presence of sperm in the vagina is taken as evidence of mating. The day sperm is detected is considered day one of pregnancy, since in our laboratories and those of other investigators 90 to 100% of animals that mate as evidenced by vaginal sperm are pregnant. Pregnancy is later confirmed at the time of autopsy by presence of fetuses or implantation sites in the uterus. Even if an animal aborts the fetus, implantation scars still remain as evidence that the animal had been pregnant. Test compounds dissolved or suspended in sesame oil are administered subcutaneously in doses of 10 mg./kg. daily for 5 days beginning on day 4 of pregnancy (days 4-8). The animals are autopsied on day 14 of pregnancy and the uteri are examined for evidence of pregnancy (implantation sites, fetal resorptions or live fetuses), hemorrage, and evidence of abnormalities of the uterus, placenta or fetuses. A compound is considered to be active if there is a reduction of live fetuses in at least 60% of the treated animals and the presence of implantation sites proves the animal to have been pregnant. […] The compounds are then studied for dose-activity relationship and toxicity or other biological activities. Compounds that show 100% effectiveness (absence of live fetuses in 100% of animals) with minimal side effects or toxicity are studied in depth.
The ED50 values identify the dose levels which show 100% effectiveness (defined as above) in 50% of the treated animals.

[2] = tested on: conditioned rats; experiment: secondary conditioned avoidance response test (anti-anxiety effect); type: in vivo
Procedure: The CNS depressant properties were investigated according to the Irwin method, and in particular, the anti-anxiety effect was evaluated on the basis of the secondary conditioned avoidance response test. A specific anti-anxiety effect was evidenced by administering to conditioned rats doses of 15-60 mg./kg. i.p. of representative compounds of the invention.
The following table indicates the ratio of the rats which were deconditioned after administration of a predetermined amount of a representative compound: […]

[3] = acute toxicity LD50 in mice; details: mouse, in vivo, ip; i.p. in mice
[4] = tested on: female beagle dogs; experiment: anti-fertility activity in pregnant female beagle dogs; type: in vivo; details: Canis lupus familiaris, sc; single subcutaneous dose on 20th day of pregnancy, opened on 35th day; read-out: Minimal effective doses (100% effectiveness, absence of live fetuses in 100% of the animals)
Description: In performing experiments with dogs, female beagle dogs weighing approximately 10 kg. are mated and on the 20th day of pregnancy the animals are given single subcutaneous doses of the compounds that were active in both the rat and the hamster. On the 35th day of pregnancy, the animals are surgically opened and the uteri are examined for presence of fetuses, placental tissue etc. Following Table III reports the minimal doses of representative compounds showing a 100% effectiveness (absence of live fetuses in 100% of the animals).

[5] = tested on: carrageenin induced edema; experiment: carrageenin test in rats (anti-inflammatory activity); type: in vivo; details: Rattus norvegicus, po; 50 mg./kg. p.o.
Description: The anti-inflammatory activity of some inventive compounds was evidenced by means of the carrageenin test in rats.

[6] = Table I, 5,6-dihydro compounds, hamsters
[7] = Table II, 5,6-unsaturated compounds, similar experiments

Structure (SMILES) | anti-fertility activity (active according to criteria) [1] | ED50 [1, 6] | also measured
CC(C)Oc1cccc(-c2nc3n(n2)CCc2ccccc2-3)c1 [Example 21, 2-(m-isopropoxyphenyl)-5,6-dihydro-s-triazolo[5,1-a]isoquinoline] | active | 0.25 mg/kg | –
CC(=O)N(C(C)=O)c1nc2n(n1)CCc1ccccc1-2 [Example 34, 2-Diacetylamino-5,6-dihydro-s-triazolo[5,1-a]isoquinoline] | – | – | Deconditioned/treated ([2]; dose 60 mg./kg. i.p.): 6/9; LD50 [3]: > 600 mg/kg
Fc1ccc(-c2nc3n(n2)CCc2ccccc2-3)cc1 [Example 28, 2-(p-fluorophenyl)-5,6-dihydro-s-triazolo[5,1-a]isoquinoline] | active | 0.1 mg/kg | –
Fc1cccc(-c2nc3n(n2)CCc2ccccc2-3)c1 [Example 19, 2-(m-fluorophenyl)-5,6-dihydro-s-triazolo[5,1-a]isoquinoline] | active | – | –
N=C(NN1CCc2ccccc2C1=O)c1ccccc1 [2-Benzimidoylamino-3,4-dihydro-1 (2H)-isoquinolinone] | – | – | Deconditioned/treated ([2]; dose 60 mg./kg. i.p.): 10/10; LD50 [3]: > 600 mg/kg
N=C(NN1CCc2ccccc2C1=O)c1cccc([N+](=O)[O-])c1 [2-(m-Nitrobenzimidoylamino)-3,4-dihydro-1-(2H) isoquinolinone] | – | – | Deconditioned/treated ([2]; dose 30 mg./kg. i.p.): 6/10; Deconditioned/treated ([2]; dose 60 mg./kg. i.p.): 10/10; LD50 [3]: > 600 mg/kg
COc1cccc(-c2nc3n(n2)CCc2ccccc2-3)c1 [Example 1, 2-(m-Methoxyphenyl)-5,6-dihydro-s-triazolo[5,1-a]isoquinoline] | active | 0.1 mg/kg | minimal effective dose [4]: 12.5 mg/kg
Clc1ccc(-c2nc3c4ccccc4ccn3n2)cc1 [Example 61, 2-(p-Chlorophenyl)-s-triazolo[5,1-a]isoquinoline] | active | – | ED50 [1, 7]: 0.08 mg/kg
C#CCOc1cccc(-c2nc3n(n2)CCc2ccccc2-3)c1 [Example 25, 2-(m-propargyloxyphenyl)-5,6-dihydro-s-triazolo[5,1-a]isoquinoline] | active | 0.21 mg/kg | –
c1ccc(-c2nc3c4ccccc4ccn3n2)cc1 [Example 59, 2-Phenyl-s-triazolo[5,1-a]isoquinoline, reference compound] | – | – | ED50 [1, 7]: 0.25 mg/kg
Cc1ccc(-c2nc3n(n2)CCc2ccccc2-3)cc1 [Example 4, 2-(p-toluyl)-5,6-dihydro-s-triazolo[5,1-a]isoquinoline, reference compound] | – | 2 mg/kg | –
CCCCCOc1cccc(-c2nc3n(n2)CCc2ccccc2-3)c1 [Example 22, 2-(m-pentyloxyphenyl)-5,6-dihydro-s-triazolo[5,1-a]isoquinoline] | active | – | –
Sc1nc2n(n1)CCc1ccccc1-2 [Example 38, 2-Sulfhydryl-5,6-dihydro-s-triazolo[5,1-a]isoquinoline] | – | – | inhibition at 50 mg/kg [5]: ~35%
Nc1nc2n(n1)CCc1ccccc1-2 [Example 32] | – | – | Deconditioned/treated ([2]; dose 30 mg./kg. i.p.): 6/10; LD50 [3]: > 600 mg/kg
COc1cc(OC)cc(-c2nc3n(n2)CCc2ccccc2-3)c1 [Example 12, 2-(3,5-dimethoxyphenyl)-5,6-dihydro-s-triazolo[5,1-a]isoquinoline] | active | – | –
Cc1ccccc1-c1nc2n(n1)CCc1ccccc1-2 [Example 2, 2-(o-toluyl)-5,6-dihydro-s-triazolo[5,1-a]isoquinoline, reference compound] | – | > 10 mg/kg | –
Clc1cccc(-c2nc3n(n2)CCc2ccccc2-3)c1 [Example 7, 2-(m-chlorophenyl)-5,6-dihydro-s-triazolo[5,1-a]isoquinoline] | active | 0.75 mg/kg | –
CCOC(=O)NC(=S)Nc1nc2n(n1)CCc1ccccc1-2 [2-carbethoxythioureido-5,6-dihydro-s-triazole-[5,1-a]isoquinoline] | – | – | Deconditioned/treated ([2]; dose 60 mg./kg. i.p.): 7/10; LD50 [3]: > 600 mg/kg

Structure (SMILES) | anti-fertility activity (active according to criteria) [1] | ED50 [1, 6] | also measured
CCOc1cccc(-c2nc3n(n2)CCc2ccccc2-3)c1 [Example 13, 2-(m-ethoxyphenyl)-5,6-dihydro-s-triazolo[5,1-a]isoquinoline] | active | 0.03 mg/kg | minimal effective dose [4]: 6.25 mg/kg
COc1cccc(-c2nc3c4ccccc4ccn3n2)c1 [Example 58, 2-(m-Methoxyphenyl)-s-triazolo[5,1-a]isoquinoline] | active | – | ED50 [1, 7]: 0.1 mg/kg
Cc1cccc(-c2nc3n(n2)CCc2ccccc2-3)c1 [Example 3, 2-(m-toluyl)-5,6-dihydro-s-triazolo[5,1-a]isoquinoline, reference compound] | – | > 10 mg/kg | –
Oc1cccc(-c2nc3n(n2)CCc2ccccc2-3)c1 [Example 42, 2-(3-Hydroxyphenyl)-5,6-dihydro-s-triazolo[5,1-a]isoquinoline] | active | – | –
c1ccc(COc2cccc(-c3nc4n(n3)CCc3ccccc3-4)c2)cc1 [Example 15, 2-(m-benzyloxyphenyl)-5,6-dihydro-s-triazolo[5,1-a]isoquinoline] | active | – | –
CCCCOc1cccc(-c2nc3n(n2)CCc2ccccc2-3)c1 [Example 31, 2-(m-butoxyphenyl)-5,6-dihydro-s-triazolo[5,1-a]isoquinoline] | active | – | –
C=CCOc1cccc(-c2nc3n(n2)CCc2ccccc2-3)c1 [Example 24, 2-(m-allyloxyphenyl)-5,6-dihydro-s-triazolo[5,1-a]isoquinoline] | active | 0.18 mg/kg | minimal effective dose [4]: 6.25 mg/kg
Cc1nc2n(n1)CCc1ccccc1-2 [Example 9, 2-methyl-5,6-dihydro-s-triazolo[5,1-a]isoquinoline, reference compound] | – | > 10 mg/kg | –
CC(=O)Nc1nc2n(n1)CCc1ccccc1-2 [Example 35, 2-Acetamido-5,6-dihydro-s-triazolo[5,1-a]isoquinoline] | – | – | Deconditioned/treated ([2]; dose 60 mg./kg. i.p.): 7/10; LD50 [3]: > 400 mg/kg
c1ccc(-c2nc3n(n2)CCc2ccccc2-3)cc1 [Example 5, 2-phenyl-5,6-dihydro-s-triazolo[5,1-a]isoquinoline, reference compound] | – | 1 mg/kg | –
c1cc(OC2CCCC2)cc(-c2nc3n(n2)CCc2ccccc2-3)c1 [Example 23, 2-(m-cyclopentyloxyphenyl)-5,6-dihydro-s-triazolo[5,1-a]isoquinoline] | active | – | –
c1ccc2c(c1)CCn1nc(-c3ccc4c(c3)OCO4)nc1-2 [Example 16, 2-(3,4-methylenedioxyphenyl)-5,6-dihydro-s-triazolo[5,1-a]isoquinoline] | active | – | –
CN(C)c1ccc(-c2nc3n(n2)CCc2ccccc2-3)cc1 [Example 27, 2-(p-dimethylaaminophenyl)-5,6-dihydro-s-triazolo[5,1-a]isoquinoline] | active | – | –
Clc1ccc(-c2nc3n(n2)CCc2ccccc2-3)cc1 [Example 8, 2-(p-chlorophenyl)-5,6-dihydro-s-triazolo[5,1-a]isoquinoline] | active | 0.065 mg/kg | –
CCCOc1cccc(-c2nc3n(n2)CCc2ccccc2-3)c1 [Example 14, 2-(m-propoxyphenyl)-5,6-dihydro-s-triazolo[5,1-a]isoquinoline] | active | 0.11 mg/kg | minimal effective dose [4]: 6.25 mg/kg
CN(C)c1cccc(-c2nc3n(n2)CCc2ccccc2-3)c1 [Example 41, 2-(m-Dimethylaminophenyl)-5,6-dihydro-s-triazolo[5,1-a]isoquinoline] | active | – | –
c1cncc(-c2nc3n(n2)CCc2ccccc2-3)c1 [Example 10, 2-(3-pyridyl)-5,6-dihydro-s-triazolo[5,1-a]isoquinoline] | – | – | Deconditioned/treated ([2]; dose 15 mg./kg. i.p.): 10/10; LD50 [3]: > 400 mg/kg
